Measurements published in patent US20180346731A1, “Formation of Stable Pyranoanthocyanins, and Uses Thereof as Sources of Natural Color” (Ohio State Innovation Foundation, priority 2017, published 2018).

Test: HPLC monitoring of pigment peaks with ascorbic acid
Type: physicochemical
Experimental: Prior to experimentation, pigments were evaluated for purity by using an analytical HPLC only different from the previously listed one by the use of different pumps (LC-20AD, Shimadzu, Md., US). Purified pigments were filtered using the Phenex RC 0.45 μm membranes. A binary system with 1 mL/min flow rate was used: solvent A: 4.5% formic acid in HPLC grade water and solvent B: HPLC grade acetonitrile. The gradient began with an isocratic flow of 6% solvent B for 17 minutes (elution of primary anthocyanins), increasing to 15% solvent B by 45 minutes (elution of primary pyranoanthocyanins), and to 40% solvent B by 50 minutes. A 10 μL injection volume was loaded onto a Phenomenex Kinetix 5 μm EVO C18 100 A. 150×4.6 mm column and Phenomenex Ultra UHPLC EVO C18 guard cartridge attached.
The semi-purified chokeberry extract, the isolated cyanidin-3-galactoside, and the purified 5-carboxypyranocyanidin-3-galactoside were diluted in pH 3.0 citrate buffer (0.1 M adjusted with HCl) until an absorbance of 1.0 at their respective λmax was reached. Levels of AA of 250, 500, and 1000 mg/L were added using a concentrated ascorbic acid stock solution, and a control consisting of each pigment with the absence of AA was maintained. The control consisted of the pigment in the buffer in the absence of AA. An additional test was performed with the same model juice using hydrogen peroxide, a known degradation product of AA. To determine if AA bleaching was due to formation of H2O2, direct addition of it was investigated. In place of added AA, a 62.2 μL of a 0.3% peroxide solution was added to match the molar equivalency of the 500 mg/L AA level, which was 2.84 mM.
All samples were brought to the same final volume with additional citrate buffer. […] Samples were stored in the dark at 25° C. in an incubator. UV-Vis spectrophotometry, colorimetry, and HPLC analyses were conducted over a 5 day period following the addition of ascorbic acid or hydrogen peroxide. UV-Vis spectral data was collected every hour for the first 8 hours, and then at 12 hr, and daily from that point on for 5 days. […] HPLC analyses were conducted on days 0, 1, 3, and 5. All treatments were run in triplicate.
Prepared solutions were monitored to determine the formation of potential degradation products or profile changes. Using the analytical HPLC system and conditions described, chromatograms were monitored with the max plot (260-700 nm), 490 nm (near λmax of 5-carboxypyranocyanidin-3-galactoside), and 520 nm (near ma of cyanidin-3-galactoside). A max plot of 470-520 nm was later added to standardize changes in the AUC for all three pigments and their degradation products.

In the case of OC[C@H]1O[C@@H](Oc2cc3c(O)cc(O)cc3[o+]c2-c2ccc(O)c(O)c2)[C@H](O)[C@@H](O)[C@H]1O [Cyanidin-3-galactoside, cyanidin-3-galactoside], the “target peaks left after 1 day” value (1000 mg/L AA, HPLC) is reported as 2%, the “reduction of pigment peak by day 1” value (1 g/L AA, HPLC AUC) is reported as 91% and the “reduction of pigment peak by day 5” value (1 g/L AA, HPLC AUC) is reported as over 99%.
